PubChem BioAssay AID1259407 (Chemical Carcinogenesis Research Information System (CCRIS), 2018)
Active and inactive are the calls of the source. No rule for the calls is given here.

Test system: CCRIS mutagenicity, Ames/micronucleus/aberration tests
Assay: CCRIS mutagenicity studies

ClC(Cl)Br
mutagenic call (End Point: Ames Salmonella typhimurium, Test System: TA97, Metabolic Activation: Hamster, liver, S-9 (10 & 30%), Aroclor 1254, Method: Preincubation): inactive; negative
mutagenic call (End Point: Ames Salmonella typhimurium, Test System: TA97, Metabolic Activation: None, Method: Preincubation): inactive; negative
mutagenic call (End Point: Ames Salmonella typhimurium, Test System: TA97, Metabolic Activation: Rat, liver, S-9 (10 & 30%), Aroclor 1254, Method: Preincubation): inactive; negative
mutagenic call (End Point: Ames Salmonella typhimurium, Test System: TA98, Metabolic Activation: Hamster, liver, S-9 (10 & 30%), Aroclor 1254, Method: Preincubation): inactive; negative
mutagenic call (End Point: Ames Salmonella typhimurium, Test System: TA98, Metabolic Activation: None, Method: Preincubation): inactive; negative
mutagenic call (End Point: Ames Salmonella typhimurium, Test System: TA98, Metabolic Activation: Rat, liver, S-9 (10 & 30%), Aroclor 1254, Method: Preincubation): inactive; negative
mutagenic call (End Point: Ames Salmonella typhimurium, Test System: TA100, Metabolic Activation: Hamster, liver, S-9 (10 & 30%), Aroclor 1254, Method: Preincubation): inactive; negative
mutagenic call (End Point: Ames Salmonella typhimurium, Test System: TA100, Metabolic Activation: None, Method: Preincubation): inactive; negative
mutagenic call (End Point: Ames Salmonella typhimurium, Test System: TA100, Metabolic Activation: Rat, liver, S-9 (10 & 30%), Aroclor 1254, Method: Preincubation): inactive; negative
mutagenic call (End Point: Ames Salmonella typhimurium, Test System: TA1535, Metabolic Activation: Hamster, liver, S-9 (10 & 30%), Aroclor 1254, Method: Preincubation): inactive; negative
mutagenic call (End Point: Ames Salmonella typhimurium, Test System: TA1535, Metabolic Activation: None, Method: Preincubation): inactive; negative
mutagenic call (End Point: Ames Salmonella typhimurium, Test System: TA1535, Metabolic Activation: Rat, liver, S-9 (10 & 30%), Aroclor 1254, Method: Preincubation): inactive; negative
mutagenic call (End Point: IN VITRO CHROMOSOMAL ABERRATIONS, Test System: CHINESE HAMSTER LUNG FIBROBLAST CELLS (CHL/IU), Metabolic Activation: RAT, LIVER, S-9, PHENOBARBITAL AND 5,6-BENZOFLAVONE): active; positive (structural changes)
mutagenic call (End Point: IN VITRO CHROMOSOMAL ABERRATIONS, Test System: CHO CELLS, Metabolic Activation: NONE): inactive; negative
mutagenic call (End Point: IN VITRO CHROMOSOMAL ABERRATIONS, Test System: CHO CELLS, Metabolic Activation: RAT, LIVER, S-9, AROCLOR 1254): inactive; negative
mutagenic call (End Point: In vivo micronucleus, Test System: Bone marrow polychromatic erythrocytes, Species: Mouse, Strain/Sex: B6C3F1/Male, Route: Intraperitoneal): inactive; negative; strain was inferred
mutagenic call (End Point: In vivo micronucleus, Test System: Peripheral blood normochromatic erythrocytes, Species: Mouse, Strain/Sex: B6C3F1/Female, Route: Oral): inactive; negative
mutagenic call (End Point: In vivo micronucleus, Test System: Peripheral blood normochromatic erythrocytes, Species: Mouse, Strain/Sex: B6.129-Trp53tm1Brd (N5) p53 Haploinsufficient//Male, Route: Oral): inactive; negative
mutagenic call (End Point: In vivo micronucleus, Test System: Peripheral blood normochromatic erythrocytes, Species: Mouse, Strain/Sex: B6.129-Trp53tm1Brd (N5) p53 Haploinsufficient/Female, Route: Oral): inactive; negative
mutagenic call (End Point: In vivo micronucleus, Test System: Peripheral blood normochromatic erythrocytes, Species: Mouse, Strain/Sex: B6.129-Trp53tm1Brd (N5) p53 Haploinsufficient/Male, Route: Oral): inactive; negative, positive results only at 350 mg/l; trend test not significant.
mutagenic call (End Point: In vivo micronucleus, Test System: Peripheral blood normochromatic erythrocytes, Species: Mouse, Strain/Sex: FVB Tg.AC hemizygous/Female, Route: Dermal): inactive; negative
mutagenic call (End Point: In vivo micronucleus, Test System: Peripheral blood normochromatic erythrocytes, Species: Mouse, Strain/Sex: FVB Tg.AC hemizygous/Female, Route: Oral): inactive; negative
mutagenic call (End Point: In vivo micronucleus, Test System: Peripheral blood normochromatic erythrocytes, Species: Mouse, Strain/Sex: FVB Tg.AC hemizygous/Male, Route: Dermal): inactive; negative
mutagenic call (End Point: In vivo micronucleus, Test System: Peripheral blood normochromatic erythrocytes, Species: Mouse, Strain/Sex: FVB Tg.AC hemizygous/Male, Route: Oral): inactive; negative
mutagenic call (End Point: Mouse Lymphoma, Test System: L5178Y (TK+/TK-), Metabolic Activation: None, Method: Suspension/Plate): inactive; negative
mutagenic call (End Point: Mouse Lymphoma, Test System: L5178Y (TK+/TK-), Metabolic Activation: Rat, liver, S-9, Aroclor 1254, Method: Suspension/Plate): active; positive
mutagenic call (Test System: AMES SALMONELLA TYPHIMURIUM, Strain/Indicator: RSJ100, Metabolic Activation: NONE, Method: STANDARD PLATE): active; positive
mutagenic call (Test System: AMES SALMONELLA TYPHIMURIUM, Strain/Indicator: TA97, Metabolic Activation: NONE, Method: STANDARD PLATE): inactive; negative
mutagenic call (Test System: AMES SALMONELLA TYPHIMURIUM, Strain/Indicator: TA97, Metabolic Activation: RAT, LIVER, S-9, AROCLOR 1254, Method: STANDARD PLATE): active; positive
mutagenic call (Test System: AMES SALMONELLA TYPHIMURIUM, Strain/Indicator: TA98, Metabolic Activation: HAMSTER, LIVER, S-9, AROCLOR 1254, Method: PREINCUBATION): inactive; negative
mutagenic call (Test System: AMES SALMONELLA TYPHIMURIUM, Strain/Indicator: TA98, Metabolic Activation: NONE, Method: PREINCUBATION): inactive; negative
mutagenic call (Test System: AMES SALMONELLA TYPHIMURIUM, Strain/Indicator: TA98, Metabolic Activation: NONE, Method: STANDARD PLATE): inactive; negative
mutagenic call (Test System: AMES SALMONELLA TYPHIMURIUM, Strain/Indicator: TA98, Metabolic Activation: RAT, LIVER, S-9, AROCLOR 1254, Method: PREINCUBATION): inactive; negative
mutagenic call (Test System: AMES SALMONELLA TYPHIMURIUM, Strain/Indicator: TA100, Metabolic Activation: HAMSTER, LIVER, S-9, AROCLOR 1254, Method: PREINCUBATION): inactive; negative
mutagenic call (Test System: AMES SALMONELLA TYPHIMURIUM, Strain/Indicator: TA100, Metabolic Activation: NONE, Method: DESICCATOR): active; positive
mutagenic call (Test System: AMES SALMONELLA TYPHIMURIUM, Strain/Indicator: TA100, Metabolic Activation: NONE, Method: FLUCTUATION TEST): inactive; negative
mutagenic call (Test System: AMES SALMONELLA TYPHIMURIUM, Strain/Indicator: TA100, Metabolic Activation: NONE, Method: PREINCUBATION): inactive; negative
mutagenic call (Test System: AMES SALMONELLA TYPHIMURIUM, Strain/Indicator: TA100, Metabolic Activation: NONE, Method: STANDARD PLATE): inactive; negative
mutagenic call (Test System: AMES SALMONELLA TYPHIMURIUM, Strain/Indicator: TA100, Metabolic Activation: RAT, LIVER, S-9, AROCLOR 1254, Method: FLUCTUATION TEST): inactive; negative
mutagenic call (Test System: AMES SALMONELLA TYPHIMURIUM, Strain/Indicator: TA100, Metabolic Activation: RAT, LIVER, S-9, AROCLOR 1254, Method: PREINCUBATION): inactive; negative
mutagenic call (Test System: AMES SALMONELLA TYPHIMURIUM, Strain/Indicator: TA104, Metabolic Activation: NONE, Method: STANDARD PLATE): inactive; negative
mutagenic call (Test System: AMES SALMONELLA TYPHIMURIUM, Strain/Indicator: TA104, Metabolic Activation: RAT, LIVER, S-9, AROCLOR 1254, Method: STANDARD PLATE): active; positive
mutagenic call (Test System: AMES SALMONELLA TYPHIMURIUM, Strain/Indicator: TA1535 (GST+), Metabolic Activation: NONE, Method: STANDARD PLATE): active; positive
mutagenic call (Test System: AMES SALMONELLA TYPHIMURIUM, Strain/Indicator: TA1535 (GST-), Metabolic Activation: NONE, Method: STANDARD PLATE): inactive; negative
mutagenic call (Test System: AMES SALMONELLA TYPHIMURIUM, Strain/Indicator: TA1535, Metabolic Activation: HAMSTER, LIVER, S-9, AROCLOR 1254, Method: PREINCUBATION): inactive; negative
mutagenic call (Test System: AMES SALMONELLA TYPHIMURIUM, Strain/Indicator: TA1535, Metabolic Activation: NONE, Method: PREINCUBATION): inactive; negative
mutagenic call (Test System: AMES SALMONELLA TYPHIMURIUM, Strain/Indicator: TA1535, Metabolic Activation: RAT, LIVER, S-9, AROCLOR 1254, Method: PREINCUBATION): inactive; negative
mutagenic call (Test System: AMES SALMONELLA TYPHIMURIUM, Strain/Indicator: TA1535, Metabolic Activation: RAT, LIVER, S-9, AROCLOR 1254, Method: STANDARD PLATE): inactive; negative
mutagenic call (Test System: AMES SALMONELLA TYPHIMURIUM, Strain/Indicator: TA1537, Metabolic Activation: HAMSTER, LIVER, S-9, AROCLOR 1254, Method: PREINCUBATION): inactive; negative
mutagenic call (Test System: AMES SALMONELLA TYPHIMURIUM, Strain/Indicator: TA1537, Metabolic Activation: NONE, Method: PREINCUBATION): inactive; negative
mutagenic call (Test System: AMES SALMONELLA TYPHIMURIUM, Strain/Indicator: TA1537, Metabolic Activation: NONE, Method: STANDARD PLATE): active; positive
mutagenic call (Test System: AMES SALMONELLA TYPHIMURIUM, Strain/Indicator: TA1537, Metabolic Activation: RAT, LIVER, S-9, AROCLOR 1254, Method: PREINCUBATION): inactive; negative
mutagenic call (Test System: AMES SALMONELLA TYPHIMURIUM, Strain/Indicator: TA1537, Metabolic Activation: RAT, LIVER, S-9, AROCLOR 1254, Method: STANDARD PLATE): inactive; negative
mutagenic call (Test System: MOUSE LYMPHOMA, Strain/Indicator: L5178Y (TK+/TK-), Metabolic Activation: NONE, Method: MICROWELL): inactive; negative
mutagenic call (Test System: MOUSE LYMPHOMA, Strain/Indicator: L5178Y (TK+/TK-), Metabolic Activation: NONE, Method: SUSPENSION/PLATE): inactive; negative
mutagenic call (Test System: MOUSE LYMPHOMA, Strain/Indicator: L5178Y (TK+/TK-), Metabolic Activation: RAT, LIVER, S-9, AROCLOR 1254, Method: SUSPENSION/PLATE): active; positive
mutagenic call (Test System: MOUSE LYMPHOMA, Strain/Indicator: L5178Y (TK+/TK-), Metabolic Activation: S-9, Method: MICROWELL): active; positive
mutagenic call (Test System: UDS RAT HEPATOCYTES, Strain/Indicator: THY INCORP, Metabolic Activation: NONE, Method: AUTORADIOGRAPHY): inactive; negative
